# How the values were obtained:
# Assay in all cases: relative viability (nuclei count vs DMSO), 5 days (fraction); higher = more cells survive
# FH535 = compound: CC1=C(C=CC(=C1)[N+](=O)[O-])NS(=O)(=O)C2=C(C=CC(=C2)Cl)Cl [FH535]
# Procedure, shortened: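 After an overnight hold at 37 °C, lung cancer cell lines in 1536-well plates were pinned with five library-drug doses (not always all listed), each √10 from the next, on vehicle-anchored plates. The cells stayed 5 days without fresh medium, then a one-step fix, permeabilisation and Hoechst stain preceded 4× imaging and MetaXpress nuclear counts. A plate passed only with control CV under 25% and at least one doubling. Viability is the median, over plates, of treated-well nuclei relative to vehicle-well nuclei.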
# FH535 + Phenformin = compound: CC1=C(C=CC(=C1)[N+](=O)[O-])NS(=O)(=O)C2=C(C=CC(=C2)Cl)Cl [FH535] + N=C(N)NC(=N)NCCc1ccccc1 [Phenformin] (partner 250 µM)
# Procedure, shortened: (§1)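 Relative viability is defined as nuclei in treated wells over nuclei in vehicle wells. Duplicate plates were run and medians reported. Lung cancer cell lines in 1536-well plates were dosed by pin tool one day after seeding, with one drug or with a fixed anchor-drug dose plus five library-drug doses (not always all listed) in √10 steps, and nuclei were counted after 5 days.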
# FH535 + Foretinib = compound: CC1=C(C=CC(=C1)[N+](=O)[O-])NS(=O)(=O)C2=C(C=CC(=C2)Cl)Cl [FH535] + COc1cc2c(Oc3ccc(NC(=O)C4(C(=O)Nc5ccc(F)cc5)CC4)cc3F)ccnc2cc1OCCCN1CCOCC1 [Foretinib] (partner 0.25 µM)
# Procedure, shortened: as §1
# FH535 + Dasatinib = compound: CC1=C(C=CC(=C1)[N+](=O)[O-])NS(=O)(=O)C2=C(C=CC(=C2)Cl)Cl [FH535] + Cc1nc(Nc2ncc(C(=O)Nc3c(C)cccc3Cl)s2)cc(N2CCN(CCO)CC2)n1 [Dasatinib] (partner 0.075 µM)
# Procedure, shortened: as §1
# FH535 + Luminespib = compound: CC1=C(C=CC(=C1)[N+](=O)[O-])NS(=O)(=O)C2=C(C=CC(=C2)Cl)Cl [FH535] + CCNC(=O)c1noc(-c2cc(C(C)C)c(O)cc2O)c1-c1ccc(CN2CCOCC2)cc1 [Luminespib] (partner 0.01 µM)
# Procedure, shortened: as §1
# FH535 + Tozasertib = compound: CC1=C(C=CC(=C1)[N+](=O)[O-])NS(=O)(=O)C2=C(C=CC(=C2)Cl)Cl [FH535] + Cc1cc(Nc2cc(N3CCN(C)CC3)nc(Sc3ccc(NC(=O)C4CC4)cc3)n2)n[nH]1 [Tozasertib] (partner 0.1 µM)
# Procedure, shortened: as §1
# FH535 + OSI-027 = compound: CC1=C(C=CC(=C1)[N+](=O)[O-])NS(=O)(=O)C2=C(C=CC(=C2)Cl)Cl [FH535] + COc1cccc2cc(-c3nc([C@H]4CC[C@H](C(=O)O)CC4)n4ncnc(N)c34)[nH]c12 [OSI-027] (partner 0.5 µM)
# Procedure, shortened: as §1
# FH535 + Pictilisib = compound: CC1=C(C=CC(=C1)[N+](=O)[O-])NS(=O)(=O)C2=C(C=CC(=C2)Cl)Cl [FH535] + CS(=O)(=O)N1CCN(Cc2cc3nc(-c4cccc5[nH]ncc45)nc(N4CCOCC4)c3s2)CC1 [Pictilisib] (partner 1 µM)
# Procedure, shortened: as §1
# FH535 + Navitoclax = compound: CC1=C(C=CC(=C1)[N+](=O)[O-])NS(=O)(=O)C2=C(C=CC(=C2)Cl)Cl [FH535] + CC1(C)CCC(c2ccc(Cl)cc2)=C(CN2CCN(c3ccc(C(=O)NS(=O)(=O)c4ccc(N[C@H](CCN5CCOCC5)CSc5ccccc5)c(S(=O)(=O)C(F)(F)F)c4)cc3)CC2)C1 [Navitoclax] (partner 0.5 µM)
# Procedure, shortened: as §1
# FH535 + Olaparib = compound: CC1=C(C=CC(=C1)[N+](=O)[O-])NS(=O)(=O)C2=C(C=CC(=C2)Cl)Cl [FH535] + O=C(c1cc(Cc2n[nH]c(=O)c3ccccc23)ccc1F)N1CCN(C(=O)C2CC2)CC1 [Olaparib] (partner 8 µM)
# Procedure, shortened: as §1
# FH535 + Lapatinib = compound: CC1=C(C=CC(=C1)[N+](=O)[O-])NS(=O)(=O)C2=C(C=CC(=C2)Cl)Cl [FH535] + CS(=O)(=O)CCNCc1ccc(-c2ccc3ncnc(Nc4ccc(OCc5cccc(F)c5)c(Cl)c4)c3c2)o1 [Lapatinib] (partner 2 µM)
# Procedure, shortened: as §1
# FH535 + Crizotinib = compound: CC1=C(C=CC(=C1)[N+](=O)[O-])NS(=O)(=O)C2=C(C=CC(=C2)Cl)Cl [FH535] + C[C@@H](Oc1cc(-c2cnn(C3CCNCC3)c2)cnc1N)c1c(Cl)ccc(F)c1Cl [Crizotinib] (partner 1 µM)
# Procedure, shortened: as §1
# FH535 + Linsitinib = compound: CC1=C(C=CC(=C1)[N+](=O)[O-])NS(=O)(=O)C2=C(C=CC(=C2)Cl)Cl [FH535] + C[C@]1(O)C[C@@H](c2nc(-c3ccc4ccc(-c5ccccc5)nc4c3)c3c(N)nccn32)C1 [Linsitinib] (partner 1 µM)
# Procedure, shortened: as §1
# FH535 + Decitabine = compound: CC1=C(C=CC(=C1)[N+](=O)[O-])NS(=O)(=O)C2=C(C=CC(=C2)Cl)Cl [FH535] + Nc1ncn([C@H]2C[C@H](O)[C@@H](CO)O2)c(=O)n1 [Decitabine] (partner 2 µM)
# Procedure, shortened: as §1
# FH535 + Alpelisib = compound: CC1=C(C=CC(=C1)[N+](=O)[O-])NS(=O)(=O)C2=C(C=CC(=C2)Cl)Cl [FH535] + Cc1nc(NC(=O)N2CCC[C@H]2C(N)=O)sc1-c1ccnc(C(C)(C)C(F)(F)F)c1 [Alpelisib] (partner 2 µM)
# Procedure, shortened: as §1
cell line,measurement,setting,value
NCI-H1623,relative viability,FH535; 0.04 µM,1.02
same,relative viability,FH535; 0.1265 µM,0.948
same,relative viability,FH535; 0.4 µM,0.991
same,relative viability,FH535; 1.265 µM,0.912
same,relative viability,FH535 + Phenformin; first compound 0.04 µM,0.551
same,relative viability,FH535 + Phenformin; first compound 0.1265 µM,0.523
same,relative viability,FH535 + Phenformin; first compound 0.4 µM,0.495
same,relative viability,FH535 + Phenformin; first compound 1.265 µM,0.468
same,relative viability,FH535 + Foretinib; first compound 0.04 µM,0.816
same,relative viability,FH535 + Foretinib; first compound 0.1265 µM,0.855
same,relative viability,FH535 + Foretinib; first compound 0.4 µM,0.823
same,relative viability,FH535 + Foretinib; first compound 1.265 µM,0.777
same,relative viability,FH535 + Dasatinib; first compound 0.04 µM,0.515
same,relative viability,FH535 + Dasatinib; first compound 0.1265 µM,0.468
same,relative viability,FH535 + Dasatinib; first compound 0.4 µM,0.508
same,relative viability,FH535 + Dasatinib; first compound 1.265 µM,0.478
same,relative viability,FH535 + Luminespib; first compound 0.04 µM,0.609
same,relative viability,FH535 + Luminespib; first compound 0.1265 µM,0.574
same,relative viability,FH535 + Luminespib; first compound 0.4 µM,0.513
same,relative viability,FH535 + Luminespib; first compound 1.265 µM,0.509
same,relative viability,FH535 + Tozasertib; first compound 0.04 µM,0.391
same,relative viability,FH535 + Tozasertib; first compound 0.1265 µM,0.426
same,relative viability,FH535 + Tozasertib; first compound 0.4 µM,0.426
same,relative viability,FH535 + Tozasertib; first compound 1.265 µM,0.45
same,relative viability,FH535 + OSI-027; first compound 0.04 µM,0.424
same,relative viability,FH535 + OSI-027; first compound 0.1265 µM,0.525
same,relative viability,FH535 + OSI-027; first compound 0.4 µM,0.451
same,relative viability,FH535 + OSI-027; first compound 1.265 µM,0.413
A549,relative viability,FH535; 0.04 µM,0.878
same,relative viability,FH535; 0.1265 µM,0.887
same,relative viability,FH535; 0.4 µM,0.928
same,relative viability,FH535; 1.265 µM,0.789
same,relative viability,FH535 + Pictilisib; first compound 0.04 µM,0.553
same,relative viability,FH535 + Pictilisib; first compound 0.1265 µM,0.511
same,relative viability,FH535 + Pictilisib; first compound 0.4 µM,0.494
same,relative viability,FH535 + Pictilisib; first compound 1.265 µM,0.398
same,relative viability,FH535 + Navitoclax; first compound 0.04 µM,1.28
same,relative viability,FH535 + Navitoclax; first compound 0.1265 µM,1.16
same,relative viability,FH535 + Navitoclax; first compound 0.4 µM,1.25
same,relative viability,FH535 + Navitoclax; first compound 1.265 µM,0.936
same,relative viability,FH535 + Phenformin; first compound 0.04 µM,0.175
same,relative viability,FH535 + Phenformin; first compound 0.1265 µM,0.159
same,relative viability,FH535 + Phenformin; first compound 0.4 µM,0.116
same,relative viability,FH535 + Phenformin; first compound 1.265 µM,0.043
same,relative viability,FH535 + Foretinib; first compound 0.04 µM,0.947
same,relative viability,FH535 + Foretinib; first compound 0.1265 µM,0.981
same,relative viability,FH535 + Foretinib; first compound 0.4 µM,0.853
same,relative viability,FH535 + Foretinib; first compound 1.265 µM,0.722
same,relative viability,FH535 + Olaparib; first compound 0.04 µM,0.28
same,relative viability,FH535 + Olaparib; first compound 0.1265 µM,0.306
same,relative viability,FH535 + Olaparib; first compound 0.4 µM,0.284
same,relative viability,FH535 + Olaparib; first compound 1.265 µM,0.299
same,relative viability,FH535 + Lapatinib; first compound 0.04 µM,0.979
same,relative viability,FH535 + Lapatinib; first compound 0.1265 µM,0.947
same,relative viability,FH535 + Lapatinib; first compound 0.4 µM,0.864
same,relative viability,FH535 + Lapatinib; first compound 1.265 µM,0.578
same,relative viability,FH535 + Crizotinib; first compound 0.04 µM,0.749
same,relative viability,FH535 + Crizotinib; first compound 0.1265 µM,0.783
same,relative viability,FH535 + Crizotinib; first compound 0.4 µM,0.631
same,relative viability,FH535 + Crizotinib; first compound 1.265 µM,0.41
same,relative viability,FH535 + Linsitinib; first compound 0.04 µM,0.497
same,relative viability,FH535 + Linsitinib; first compound 0.1265 µM,0.627
same,relative viability,FH535 + Linsitinib; first compound 0.4 µM,0.641
same,relative viability,FH535 + Linsitinib; first compound 1.265 µM,0.568
same,relative viability,FH535 + Decitabine; first compound 0.04 µM,0.251
same,relative viability,FH535 + Decitabine; first compound 0.1265 µM,0.228
same,relative viability,FH535 + Decitabine; first compound 0.4 µM,0.161
same,relative viability,FH535 + Decitabine; first compound 1.265 µM,0.222
same,relative viability,FH535 + Alpelisib; first compound 0.04 µM,0.842
same,relative viability,FH535 + Alpelisib; first compound 0.1265 µM,0.754
same,relative viability,FH535 + Alpelisib; first compound 0.4 µM,0.72
same,relative viability,FH535 + Alpelisib; first compound 1.265 µM,0.705

# Reference: the supplement of paper PMC10307832
